Numbered stars: 1 amine (or outer) side, 2 acyl side, 3 side chain; on linkers, the order of the positions; unused ones are H or OH. Bridge positions count the residues as written; N and C are the ends. Square brackets hold non-standard residues; d marks the D form. Side chains are listed from the residue outwards. Ends that are not written are not given here. * marks the point of attachment. C18 diacid = O=C(O)CCCCCCCCCCCCCCCCC(=O)*; γGlu = O=C(O)[C@H](CCC(=O)[*:2])N[*:1]; αMeF = C[C@](N)(Cc1ccccc1)C(=O)O
How the values were obtained:
Format in all cases: in vivo, rat
[1] = test system: DIO Sprague-Dawley rats; assay: Example 3: 28-day body weight study in DIO rats; details: day 28; LAA 7.5 nmol/kg SC QD
Experimental: Study Design: Male DIO Sprague-Dawley rats were fed a high-fat diet (32.5% kcal fat, D12266B; Research Diets) for approximately 8 weeks prior to study start. Rats were dosed once daily SC for 28 days with Vehicle, GLP-1/GCG (1.5 nmol/kg or 5 nmol/kg), LAA (7.5 nmol/kg) or a combination of GLP-1/GCG and LAA (1.5 and 7.5 nmol/kg, or 5 nmol/kg and 7.5 nmol/kg, respectively) with an n=6/group. Body weight was monitored daily throughout the study. Data reported as mean±standard error of the mean (SEM); data analysis performed using GraphPad Prism-statistical analysis performed using One-way ANOVA with Tukey ad hoc analysis (*p<0.05, **p<0.01, ***0<0.001, ****p<0.0001). In this experiment, the LAA was that of SEQ ID NO: 11, and the GLP-1/GCG dual-agonist was cotadutide.

[2] = test system: Wistar Han rats; assay: Example 4: 3-month subcutaneous study, body weight; details: for Body Weight Comparison, Day 92 vs. Control Group 1 Day 92 / Body Weight Gain (Day 92 vs Day −1) / Mean Body Weight at Day 92: dose levels 2000/0, Group 4
Experimental: Study Design: Male (9-11 weeks of age) and female (10-11 weeks of age) Wistar Han rats were SC administered with Vehicle/Vehicle (group 1—for LAA of SEQ ID NO: 11 and GLP-1/GCG of SEQ ID NO: 35), LAA of SEQ ID NO: 11 and GLP-1/GCG of SEQ ID NO: 35 (group 2—500 and 5 μg/kg respectively), LAA of SEQ ID NO: 11 and GLP-1/GCG of SEQ ID NO: 35 (group 3—2000 and 5 μg/kg respectively), SEQ ID NO: 11 and Vehicle for SEQ ID NO: 35 (group 4—2000 μg/kg and 0 μg/kg respectively), or Vehicle for SEQ ID NO: 11 and SEQ ID NO: 35 (group 5—0 and 5 μg/kg respectively) daily for 91 days. Dosing for LAA of SEQ ID NO: 11 was dose escalated with group 2 receiving 250 μg/kg from day 1-5 and 500 μg/kg for duration of study, and groups 3 and 4 receiving 250 μg/kg SEQ ID NO: 11 from day 1-5, 500 μg/kg SEQ ID NO: 11 from days 7-13 and 2000 μg/kg for duration of study. There was a n=10/group per gender.

[3] = test system: DIO Sprague-Dawley rats; assay: Example 6 Study 2: 4-week LAA, GLP-1RA or both; details: QD SC 4 weeks; LAA 7.5 nmol/kg, GLP-1RA 5 nmol/kg, or both; FIG. 5H
Experimental: Study 2 Design: Male DIO Sprague-Dawley rats were injected QD SC with either vehicle, LAA 7.5 nmol/kg, GLP-1RA 5 nmol/kg, or both, for 4 weeks. Monotherapy doses were selected to achieve matching BW loss. BW and food intake were measured daily, and body composition was measured at baseline and end of study.

[4] = test system: DIO Sprague-Dawley rats; assay: Example 6: treatment switch / add-on study after GLP-1RA lead-in; details: for body weight change, % of day 0 body weight: day 30
Experimental: Study Design: Male DIO Sprague-Dawley rats were fed a high-fat diet (32.5% kcal fat, D12266B; Research Diets) for approximately 8 weeks prior to study start. Rats were dosed SC for 15 days with Vehicle (n=16) or GLP-1RA (n=32) (5 nmol/kg) once-daily (QD). Beginning on day 16 rats initially treated with Vehicle either continued with Vehicle (n=8) or were switched to LAA (7.5 nmol/kg, n=8) administration. Rats initially receiving GLP-1RA treatment either continued with GLP-1RA, were switched to LAA (7.5 nmol/kg), were switched to Vehicle, or continued with GLP-1RA with addition of LAA treatment (7.5 nmol/kg) for duration of study (day 30), with n=8/group. Body weight was measured daily through-out study. Data reported as mean±standard error of the mean (SEM); data analysis performed using GraphPad Prism In this experiment, the LAA was that of SEQ ID NO: 11, and the GLP-1R agonist was semaglutide.

[5] = test system: chow fed lean rats; assay: Example 3: acute gastric emptying by X-ray fluoroscopic quantification; details: acute SC
Experimental: Study design: DIO male pair-housed rats fed a 32.5% high-fat diet (D12266B) for 7 weeks reached a mean body weight (BW) of ˜595 g. Rats were dosed SC daily for 28 days with vehicle (Vh), GLP-1/GCG dual agonist (1.5 or 5 nmol/kg), LAA (2.5 or 7.5 nmol/kg), or combination (1.5+2.5 nmol/kg, 1.5+7.5 nmol/kg, 5+2.5 nmol/kg, or 5+7.5 nmol/kg, respectively). Food intake (FI) and BW were measured daily. In chow fed lean rats, gastric emptying (GE) was measured via X-ray fluoroscopic quantification following SC injections of Vh, GLP-1/GCG dual agonist at 1, 3, or 10 nmol/kg or LAA at 1, 3, or 10 nmol/kg. In a subsequent acute GE study, lean rats received a single dose of Vh, GLP-1/GCG dual agonist (2 nmol/kg), LAA (2 nmol/kg) or GLP-1/GCG dual agonist+LAA combination (2+2 nmol/kg). In this experiment, the LAA was that of SEQ ID NO: 11, and the GLP-1/GCG dual-agonist was cotadutide.

[6] = test system: DIO Sprague-Dawley rats; assay: Example 6 Study 3: 28-day treatment and 14-day wash-out
Experimental: Study 3 Design: Male DIO Sprague-Dawley rats (Charles River Laboratories) were fed a high-fat diet (32.5% kcal fat, D12266B; […] Rats were dosed SC QD for 28 days with Vehicle (n=16), GLP-1RA at 5 nmol/kg (n=16), LAA (“SARA”) at 7.5 nmol/kg (n=16), or GLP1RA+LAA at 5+7.5 nmol/kg respectively (n=16). Following 28 days of treatment half the animals per group stopped treatment and were allowed to wash-out for 14 days (n=8/group), while the remaining animals per group were euthanized with blood/tissues collected. Body weight and food intake were measured daily, and body composition was measured before study start, on day 27 and then again on day 42. Data reported as mean±standard error of the mean (SEM); data analysis performed using GraphPad Prism. In this experiment, the LAA was that of SEQ ID NO: 11, and the GLP-1RA was semaglutide.

[7] = end of study, after initial GLP-1RA: GLP-1RA continued, switched to LAA, or Combination

Substance: K(γE-γE-C18diacid)[CNTATC]ATQRLANFLRHSSNN(αMePhe)GPILPPTEVGSNTY-amide (K([γGlu-γGlu-C18 diacid])CNTATCATQRLANFLRHSSNN[αMeF]GPILPPTEVGSNTY-NH2; disulfide 2-7) [LAA]
- mean change in body weight normalized to Vehicle [1]: −13.7%
- Body weight at study day 92 vs Vehicle ([2]; both male and female, groups 2-5): significantly lower
- Body Weight Comparison, Day 92 vs. Control Group 1 Day 92 ([2]; female): 89%
- Body Weight Gain (Day 92 vs Day −1) ([2]; female): 110%
- Mean Body Weight at Day 92 ([2]; female): 222.1 grams
- Body Weight Comparison, Day 92 vs. Control Group 1 Day 92 ([2]; male): 79%
- Body Weight Gain (Day 92 vs Day −1) ([2]; male): 119%
- Mean Body Weight at Day 92 ([2]; male): 319.2 grams
- fat mass change from baseline [3]: greater loss of fat mass than GLP-1RA monotherapy
- total lean mass at the end of the study ([4]; FIG. 5E): trend towards the animals switching to LAA therapy preserving the most lean mass
- fasting leptin levels at the end of the study ([4]; compared to discontinuing therapy at day 15, FIG. 5F): significantly reduced
- body weight change, % of day 0 body weight ([4]; switched from GLP-1RA to LAA 7.5 nmol/kg on day 16): −3.4%
- body weight change, % of day 0 body weight ([4]; switched from Vehicle to LAA 7.5 nmol/kg on day 16): +1.1%
- Fat [4, 7]: 103.70 g
- Fat, Δ from Control [4, 7]: 41.95 g
- change in body weight normalized to Vehicle ([4]; end of study, switched from GLP-1RA to LAA): −12%
- change in body weight normalized to Vehicle ([4]; end of study, switched from VH to LAA): −7.1%
- Fat, Δ from Vehicle ([4]; end of study, vs group switched from GLP-1RA to Vehicle): 27.21 g
- GE AUC as % of Vehicle ([5]; 1 nmol/kg): 101%
- GE AUC as % of Vehicle ([5]; 3 nmol/kg): 34%
- GE AUC as % of Vehicle ([5]; 10 nmol/kg): 8%
- inhibition of food intake compared to vehicle ([6]; SC QD 28 days, LAA 7.5, GLP-1RA 5, or 5+7.5 nmol/kg): ~−20%
- BW loss compared to vehicle ([6]; SC QD 28 days, LAA 7.5, GLP-1RA 5, or 5+7.5 nmol/kg, FIG. 5I): −9.3%
- lean mass change ([6]; baseline to day 27, FIG. 5K): preservation of lean mass
- fat mass change from baseline ([6]; baseline to day 27, LAA 7.5, GLP-1RA 5, or 5+7.5 nmol/kg, FIG. 5J): -17.7 g

— US20260091086A1, “POLYPEPTIDE COMBINATIONS AND USES THEREOF” (MEDIMMUNE LIMITED, priority 2024, published 2026)
